Experimental findings from PubChem BioAssay (NCI) are described below.

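Assay format: 96-well plates, 48-hour exposure. Here, GI50 denotes the concentration required for 50% inhibition of growth. TGI: concentration producing complete growth inhibition.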

Test systems include ACHN renal; HL-60(TB) leukemia; IGROV1 ovarian; SN12C renal; SW-620 colon; UACC-257 melanoma; CCRF-CEM leukemia; MOLT-4 leukemia; SK-MEL-5 melanoma; LOX IMVI melanoma.
Holding throughout (experiment): inhibition of tumour cell growth, NCI panel, 48 h

Consider `CCCCC/C=C/C/C=C/CCCCCCCC1=NC(C)(C)CN1C(C)C`, for which the GI50 with ACHN renal was 1.7 µM; in the assay with HL-60(TB) leukemia, 1.48 µM; with IGROV1 ovarian it was 1.23 µM; in the assay on SN12C renal, 1.71 µM; in the assay with SW-620 colon, 1.6 µM; in the assay with UACC-257 melanoma, 1.72 µM. The TGI amounted to 3.07 µM in the assay with ACHN renal; 3.43 µM with HL-60(TB) leukemia; 2.47 µM with IGROV1 ovarian; 4.08 µM in the assay with SN12C renal; 2.99 µM with SW-620 colon; 3.2 µM with UACC-257 melanoma.

For `O=C(/C=C/c1ccccc1Cl)c1ccccc1Cl`, the TGI was 31.1 µM with ACHN renal; 44.9 µM with CCRF-CEM leukemia; 47.1 µM with HL-60(TB) leukemia; 33.3 µM in the assay with IGROV1 ovarian; 60 µM in the assay with MOLT-4 leukemia; 99.1 µM in the assay on SK-MEL-5 melanoma. In addition, the TGI in the assay on SN12C renal is 41.4 µM; with SW-620 colon it was 26.2 µM; with UACC-257 melanoma, 60.4 µM.

For the compound `COc1ccc(C2CC(=O)c3c(OC)cc(OC)cc3O2)cc1` (centres undefined), the GI50 was greater than 100 µM in the assay with ACHN renal; 4.2 µM in the assay on CCRF-CEM leukemia; greater than 100 µM in the assay with IGROV1 ovarian; greater than 100 µM with LOX IMVI melanoma; greater than 100 µM in the assay on MOLT-4 leukemia; greater than 100 µM in the assay on SK-MEL-5 melanoma. Also, the GI50 in the assay on SN12C renal, with SW-620 colon and in the assay on UACC-257 melanoma was greater than 100 µM each time. Further, the TGI in the assay with ACHN renal, in the assay on CCRF-CEM leukemia, in the assay with IGROV1 ovarian, in the assay with LOX IMVI melanoma, in the assay with MOLT-4 leukemia and with SK-MEL-5 melanoma was greater than 100 µM throughout. The TGI in the assay with SN12C renal, in the assay on SW-620 colon and in the assay with UACC-257 melanoma was greater than 100 µM throughout.

As to `Cc1cccc(C(C)(C)C)c1NC(=O)CCc1n[nH]c(=S)o1`, the TGI in the assay on ACHN renal, in the assay on CCRF-CEM leukemia, in the assay with HL-60(TB) leukemia, with IGROV1 ovarian, in the assay with MOLT-4 leukemia and with SK-MEL-5 melanoma was greater than 100 µM throughout. Further, the TGI in the assay on SN12C renal was greater than 100 µM; with SW-620 colon it was 34.1 µM; in the assay with UACC-257 melanoma, greater than 100 µM.

`CCc1cccc(C)c1NC(C)=O`: the TGI with ACHN renal, in the assay on CCRF-CEM leukemia, in the assay with HL-60(TB) leukemia, with IGROV1 ovarian, in the assay on MOLT-4 leukemia and in the assay with SK-MEL-5 melanoma was greater than 100 µM in each case. Besides, the TGI in the assay on SW-620 colon and with UACC-257 melanoma was greater than 100 µM each time.

Take `NCCCCn1c2c(c3ccccc3c1=O)C(=O)c1ccccc1-2`: the GI50 was 0.0161 µM with ACHN renal; 0.0195 µM in the assay with CCRF-CEM leukemia; 0.0382 µM in the assay on HL-60(TB) leukemia; 0.314 µM with IGROV1 ovarian; 0.0269 µM in the assay on LOX IMVI melanoma; 0.153 µM in the assay on SK-MEL-5 melanoma. Further, the GI50 in the assay with SN12C renal was 0.0385 µM; in the assay on SW-620 colon it was less than 0.0185 µM; in the assay on UACC-257 melanoma, 0.619 µM. Further, the TGI in the assay on ACHN renal stood at 0.123 µM; with CCRF-CEM leukemia, 1.6 µM; in the assay on HL-60(TB) leukemia, 0.0919 µM; in the assay with LOX IMVI melanoma it was 0.346 µM; in the assay with SK-MEL-5 melanoma, 1.25 µM; with SN12C renal, 0.244 µM. Further, the TGI in the assay with SW-620 colon amounted to 1.38 µM; in the assay with UACC-257 melanoma, 1.91 µM.

As for `CC(=O)NC(CCCN)C(=O)NCc1ccccc1` (centres undefined), the TGI in the assay on ACHN renal, in the assay with CCRF-CEM leukemia, with IGROV1 ovarian, with LOX IMVI melanoma, in the assay with MOLT-4 leukemia and in the assay on SK-MEL-5 melanoma was greater than 100 µM in each case. For the same compound, the TGI in the assay on SN12C renal, in the assay on SW-620 colon and in the assay on UACC-257 melanoma was greater than 100 µM throughout.

Take `COc1cc2c3c(n(CCCCl)c(=O)c2cc1OC)-c1ccccc1C3=O`: the GI50 is 19.2 µM with ACHN renal; 0.71 µM in the assay with CCRF-CEM leukemia; 8.83 µM with LOX IMVI melanoma; 2.18 µM with MOLT-4 leukemia; 21.9 µM in the assay with SK-MEL-5 melanoma; greater than 100 µM with SN12C renal. The GI50 with UACC-257 melanoma was 10.2 µM. The TGI in the assay on ACHN renal is greater than 100 µM; in the assay on CCRF-CEM leukemia it was greater than 100 µM; in the assay on LOX IMVI melanoma it was greater than 100 µM; with MOLT-4 leukemia it was 96.6 µM; with SK-MEL-5 melanoma it was greater than 100 µM; in the assay with SN12C renal, greater than 100 µM. This compound also registered a TGI with UACC-257 melanoma greater than 100 µM.

As for `COc1ccc2cc(C(=O)/C=C/c3cccc(OC)c3OC)ccc2c1`, the GI50 was 8.38 µM in the assay on ACHN renal; 5.46 µM with CCRF-CEM leukemia; 3.12 µM in the assay on MOLT-4 leukemia; 14.3 µM in the assay with SK-MEL-5 melanoma; 3.83 µM in the assay on SN12C renal; 9.53 µM in the assay on SW-620 colon. Also, the GI50 with UACC-257 melanoma is 15 µM. For the same compound, the TGI in the assay with ACHN renal is 22.2 µM; in the assay on CCRF-CEM leukemia it was greater than 100 µM; in the assay on MOLT-4 leukemia, 15.6 µM; with SK-MEL-5 melanoma, 27.4 µM; in the assay with SN12C renal, 14 µM; with SW-620 colon it was 29.1 µM. Besides, in the assay with UACC-257 melanoma, the TGI turned out to be 29.8 µM.

`NCCCNCCSSCCCCS(=O)O`: the TGI with ACHN renal was greater than 100 µM; in the assay on HL-60(TB) leukemia, 40.7 µM; with IGROV1 ovarian it was greater than 100 µM; in the assay with LOX IMVI melanoma, 21.6 µM; in the assay on MOLT-4 leukemia, 47.1 µM; with SK-MEL-5 melanoma, 32.7 µM. In addition, the TGI was greater than 100 µM in the assay with SN12C renal, greater than 100 µM in the assay on SW-620 colon and 78.5 µM in the assay with UACC-257 melanoma.

As to `CCCCn1c(-c2ccc(C(=O)O/N=C(\N)c3ccc(OC)cc3)cc2)nc(-c2ccccc2)c1-c1ccccc1`, the GI50 in the assay with ACHN renal was 0.599 µM; in the assay on CCRF-CEM leukemia, 0.556 µM; with IGROV1 ovarian, 0.334 µM; with LOX IMVI melanoma it was 0.181 µM; in the assay on SN12C renal, 1.84 µM; in the assay with UACC-257 melanoma, 3.61 µM. The TGI with ACHN renal was 1.85 µM; in the assay on CCRF-CEM leukemia it was 2.76 µM; in the assay with IGROV1 ovarian, 1.16 µM; with LOX IMVI melanoma, 0.342 µM; in the assay on SN12C renal, 4.46 µM; in the assay on UACC-257 melanoma, greater than 100 µM.

Turning to `CCOC(=O)[C@H]1Nc2ccc(C)cc2C2c3ccccc3CC21` (some centres undefined), the TGI with ACHN renal, in the assay with IGROV1 ovarian, in the assay on LOX IMVI melanoma, with MOLT-4 leukemia, with SK-MEL-5 melanoma and in the assay on SN12C renal was greater than 100 µM throughout. Moreover, the TGI with SW-620 colon and in the assay on UACC-257 melanoma was greater than 100 µM each time.
